Activity calls are given as the source filed them.
Key:
[1] = target: 26S proteasome non-ATPase regulatory subunit 14 (Homo sapiens, UniProt O00487); assay: inhibition of proteasome subunit RPN11 – biochemical, fluorescence polarization, uHTS hits, confirmation (AID 602368); assay type: functional
[2] = target: Peroxisome proliferator-activated receptor gamma/Nuclear receptor corepressor 2 (Homo sapiens, UniProt P37231+Q9Y618); assay: Counterscreen for NR2E3 inverse agonists: TR-FRET-based biochemical high throughput dose response assay to identify inverse agonists of the interaction between peroxisome proliferator-activated receptor gamma (PPARg) and nuclear receptor co-repressor 2 (NCOR2).; assay type: functional
Sequence of Peroxisome proliferator-activated receptor gamma/Nuclear receptor corepressor 2 (P37231 whole entry): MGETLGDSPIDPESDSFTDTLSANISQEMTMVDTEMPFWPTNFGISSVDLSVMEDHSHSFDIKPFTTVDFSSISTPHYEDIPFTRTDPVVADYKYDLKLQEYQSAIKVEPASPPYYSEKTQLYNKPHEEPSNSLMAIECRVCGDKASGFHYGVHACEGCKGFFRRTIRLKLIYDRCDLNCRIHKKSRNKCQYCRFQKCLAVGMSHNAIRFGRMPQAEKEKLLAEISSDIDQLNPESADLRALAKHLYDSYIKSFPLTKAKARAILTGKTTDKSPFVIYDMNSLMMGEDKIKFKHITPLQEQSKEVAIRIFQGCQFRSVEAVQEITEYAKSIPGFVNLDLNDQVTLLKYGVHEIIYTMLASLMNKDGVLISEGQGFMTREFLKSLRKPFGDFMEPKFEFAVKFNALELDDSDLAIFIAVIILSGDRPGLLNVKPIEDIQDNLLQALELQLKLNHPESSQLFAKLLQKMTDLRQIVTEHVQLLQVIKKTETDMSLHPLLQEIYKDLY
Sequence of Peroxisome proliferator-activated receptor gamma/Nuclear receptor corepressor 2 (Q9Y618 whole entry): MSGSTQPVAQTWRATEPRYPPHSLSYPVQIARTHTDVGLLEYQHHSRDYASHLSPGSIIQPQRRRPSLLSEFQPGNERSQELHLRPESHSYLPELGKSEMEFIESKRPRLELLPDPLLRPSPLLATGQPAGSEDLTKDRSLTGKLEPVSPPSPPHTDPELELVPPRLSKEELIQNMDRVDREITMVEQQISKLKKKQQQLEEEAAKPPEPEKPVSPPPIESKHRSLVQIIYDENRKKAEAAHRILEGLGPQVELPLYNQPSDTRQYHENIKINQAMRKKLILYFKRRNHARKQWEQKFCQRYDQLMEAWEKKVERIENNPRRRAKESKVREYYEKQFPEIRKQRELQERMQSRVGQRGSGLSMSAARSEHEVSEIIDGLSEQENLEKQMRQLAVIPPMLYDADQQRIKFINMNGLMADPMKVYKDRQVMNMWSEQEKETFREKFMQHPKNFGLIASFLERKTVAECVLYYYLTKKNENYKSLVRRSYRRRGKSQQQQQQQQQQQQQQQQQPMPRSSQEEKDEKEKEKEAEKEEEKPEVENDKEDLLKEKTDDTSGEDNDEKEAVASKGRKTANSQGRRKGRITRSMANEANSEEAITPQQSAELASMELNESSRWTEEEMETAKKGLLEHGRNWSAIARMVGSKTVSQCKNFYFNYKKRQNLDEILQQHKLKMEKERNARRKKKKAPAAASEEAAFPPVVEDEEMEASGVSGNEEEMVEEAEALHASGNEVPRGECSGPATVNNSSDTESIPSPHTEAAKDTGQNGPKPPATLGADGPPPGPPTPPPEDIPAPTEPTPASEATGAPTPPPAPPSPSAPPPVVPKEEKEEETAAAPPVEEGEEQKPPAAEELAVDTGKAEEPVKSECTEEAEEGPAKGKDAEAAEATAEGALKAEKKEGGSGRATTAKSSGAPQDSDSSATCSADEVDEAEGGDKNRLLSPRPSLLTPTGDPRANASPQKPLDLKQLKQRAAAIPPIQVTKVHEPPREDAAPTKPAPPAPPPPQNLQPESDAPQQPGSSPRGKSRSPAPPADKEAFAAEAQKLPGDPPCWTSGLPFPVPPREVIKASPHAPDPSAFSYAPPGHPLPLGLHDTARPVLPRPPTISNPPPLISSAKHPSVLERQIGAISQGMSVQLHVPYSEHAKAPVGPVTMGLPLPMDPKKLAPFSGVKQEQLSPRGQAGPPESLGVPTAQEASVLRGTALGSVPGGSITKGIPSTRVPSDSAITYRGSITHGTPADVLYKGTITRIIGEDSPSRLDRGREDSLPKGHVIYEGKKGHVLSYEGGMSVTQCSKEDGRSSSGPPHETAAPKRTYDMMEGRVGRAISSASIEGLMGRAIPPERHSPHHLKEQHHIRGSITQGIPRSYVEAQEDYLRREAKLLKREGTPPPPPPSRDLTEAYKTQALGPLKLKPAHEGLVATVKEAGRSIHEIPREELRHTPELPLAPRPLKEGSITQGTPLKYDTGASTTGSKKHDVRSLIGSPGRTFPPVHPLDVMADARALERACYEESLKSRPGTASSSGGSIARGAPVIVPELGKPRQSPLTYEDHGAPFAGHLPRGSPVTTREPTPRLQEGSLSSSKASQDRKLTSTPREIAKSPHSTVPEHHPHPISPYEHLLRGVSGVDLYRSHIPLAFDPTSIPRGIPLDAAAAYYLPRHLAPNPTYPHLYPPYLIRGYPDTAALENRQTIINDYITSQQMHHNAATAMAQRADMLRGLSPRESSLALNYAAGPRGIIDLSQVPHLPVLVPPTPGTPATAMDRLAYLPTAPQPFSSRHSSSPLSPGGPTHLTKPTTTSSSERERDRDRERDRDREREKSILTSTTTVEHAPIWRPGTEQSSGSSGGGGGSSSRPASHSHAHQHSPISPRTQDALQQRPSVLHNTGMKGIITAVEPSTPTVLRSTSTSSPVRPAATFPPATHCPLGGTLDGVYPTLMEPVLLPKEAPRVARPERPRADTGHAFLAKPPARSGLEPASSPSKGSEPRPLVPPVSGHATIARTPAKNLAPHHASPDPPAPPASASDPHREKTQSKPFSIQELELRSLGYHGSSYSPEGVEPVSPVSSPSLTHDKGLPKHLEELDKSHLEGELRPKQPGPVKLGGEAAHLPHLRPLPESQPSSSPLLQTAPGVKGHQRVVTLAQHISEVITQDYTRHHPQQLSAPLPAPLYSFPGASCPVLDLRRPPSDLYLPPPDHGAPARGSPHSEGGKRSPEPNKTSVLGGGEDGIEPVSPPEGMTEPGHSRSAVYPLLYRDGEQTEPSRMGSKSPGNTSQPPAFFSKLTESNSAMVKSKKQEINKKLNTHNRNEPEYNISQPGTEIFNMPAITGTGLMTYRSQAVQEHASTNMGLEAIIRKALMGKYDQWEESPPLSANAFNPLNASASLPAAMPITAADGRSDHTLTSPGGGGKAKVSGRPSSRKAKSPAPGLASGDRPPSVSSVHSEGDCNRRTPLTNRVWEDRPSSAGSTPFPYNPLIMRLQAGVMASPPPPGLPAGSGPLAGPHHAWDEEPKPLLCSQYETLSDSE

Prothrombin = Prothrombin (Bos taurus, UniProt P00735); assay: thrombin inhibition, dose response, biochemical, fluorescence polarization, uHTS hits (AID 602369); assay type: functional
[3] = target: 72 kDa type IV collagenase (Homo sapiens, UniProt P08253); assay: Dose Response validation of uHTS RPN11 inhibitor hits using a MMP-2 Fluorescence assay.; assay type: functional
Sequence of 72 kDa type IV collagenase (P08253 whole entry): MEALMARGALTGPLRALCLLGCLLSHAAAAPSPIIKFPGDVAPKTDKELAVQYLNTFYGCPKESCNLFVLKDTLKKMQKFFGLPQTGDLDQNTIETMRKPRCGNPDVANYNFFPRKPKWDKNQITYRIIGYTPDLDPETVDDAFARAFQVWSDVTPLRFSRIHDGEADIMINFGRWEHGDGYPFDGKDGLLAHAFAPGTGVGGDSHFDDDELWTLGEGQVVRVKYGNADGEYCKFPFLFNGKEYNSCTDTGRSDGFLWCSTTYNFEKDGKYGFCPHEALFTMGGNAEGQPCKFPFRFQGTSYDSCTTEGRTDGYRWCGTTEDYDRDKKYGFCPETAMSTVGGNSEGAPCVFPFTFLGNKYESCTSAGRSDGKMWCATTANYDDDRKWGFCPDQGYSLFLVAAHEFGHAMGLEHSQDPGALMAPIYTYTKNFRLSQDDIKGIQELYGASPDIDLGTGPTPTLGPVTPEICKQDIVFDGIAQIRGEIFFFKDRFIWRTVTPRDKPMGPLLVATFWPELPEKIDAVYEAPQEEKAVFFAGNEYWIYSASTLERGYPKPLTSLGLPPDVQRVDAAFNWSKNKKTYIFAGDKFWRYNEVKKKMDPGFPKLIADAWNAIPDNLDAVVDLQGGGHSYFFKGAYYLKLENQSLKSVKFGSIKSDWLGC

[4] = target: Photoreceptor-specific nuclear receptor (Homo sapiens, UniProt Q9Y5X4); assay: NR2E3 inverse agonists, dose response, biochemical, TR-FRET (AID 463256); assay type: functional
Sequence of Photoreceptor-specific nuclear receptor (Q9Y5X4 whole entry): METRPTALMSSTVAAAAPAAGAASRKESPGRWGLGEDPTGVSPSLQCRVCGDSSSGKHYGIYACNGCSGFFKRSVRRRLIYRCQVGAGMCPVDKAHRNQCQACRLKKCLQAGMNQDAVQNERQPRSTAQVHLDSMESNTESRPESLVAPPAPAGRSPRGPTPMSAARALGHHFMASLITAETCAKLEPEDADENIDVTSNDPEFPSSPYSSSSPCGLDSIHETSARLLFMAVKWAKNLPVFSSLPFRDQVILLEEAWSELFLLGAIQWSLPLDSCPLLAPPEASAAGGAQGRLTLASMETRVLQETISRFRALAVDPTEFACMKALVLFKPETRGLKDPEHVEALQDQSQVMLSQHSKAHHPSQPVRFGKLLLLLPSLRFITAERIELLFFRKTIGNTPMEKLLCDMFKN

HEK293 = assay: inhibitors of LMP1-driven NF-kB reporter, dose response, cell-based, HEK293, luciferase, cherry-pick (AID 588343); assay type: functional; conditions: Homo sapiens
INS1 = assay: beta cell apoptosis inhibitors, cytokine rescue, dose response, luminescence, retest (AID 449756); assay type: functional, cell-based; conditions: Rattus norvegicus;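 note: cell death triggered by IL-1 beta plus TNF-alpha plus IFN-gamma mixture; protective hits raise ATP signal compared with cytokine alone wells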
[5] = target: T1, Endoribonuclease toxin MazF (Escherichia coli K-12, UniProt P0AE70); assay: MazF toxin RNase activators, dose response, biochemical, fluorescence, single-stranded RNA substrate, uHTS hits (AID 588481); assay type: functional
T1 sequence (P0AE70 whole entry): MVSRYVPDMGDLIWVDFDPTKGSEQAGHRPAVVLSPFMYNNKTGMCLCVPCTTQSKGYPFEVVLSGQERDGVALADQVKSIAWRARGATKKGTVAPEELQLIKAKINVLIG

[6] = target: T1, Endoribonuclease toxin MazF; assay: fluorescent RNA oligo signal without MazF, dose response, counter-screen for MazEF activator project, biochemical, fluorescence, single-stranded RNase substrate (AID 588502); assay type: functional
[7] = target: T2, Corticotropin-releasing factor receptor 2/Corticotropin-releasing factor-binding protein (Homo sapiens, UniProt P24387+Q13324); assay: activators of CRF receptor 2 with binding protein – uHTS hits, confirmation (AID 602473); assay type: functional; conditions: read-out: EC50_Mean
T2 sequence (Q13324 whole entry): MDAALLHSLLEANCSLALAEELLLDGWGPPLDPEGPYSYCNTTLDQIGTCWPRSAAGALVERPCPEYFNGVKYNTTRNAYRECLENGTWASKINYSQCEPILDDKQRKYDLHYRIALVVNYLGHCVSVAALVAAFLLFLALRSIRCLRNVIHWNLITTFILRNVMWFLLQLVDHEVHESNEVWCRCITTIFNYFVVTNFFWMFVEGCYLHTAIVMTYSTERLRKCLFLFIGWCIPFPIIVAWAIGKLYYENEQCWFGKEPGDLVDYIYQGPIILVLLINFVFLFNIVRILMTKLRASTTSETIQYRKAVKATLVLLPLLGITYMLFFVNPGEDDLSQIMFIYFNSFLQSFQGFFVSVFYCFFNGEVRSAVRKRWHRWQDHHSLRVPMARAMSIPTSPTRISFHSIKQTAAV
T2 sequence (P24387 whole entry): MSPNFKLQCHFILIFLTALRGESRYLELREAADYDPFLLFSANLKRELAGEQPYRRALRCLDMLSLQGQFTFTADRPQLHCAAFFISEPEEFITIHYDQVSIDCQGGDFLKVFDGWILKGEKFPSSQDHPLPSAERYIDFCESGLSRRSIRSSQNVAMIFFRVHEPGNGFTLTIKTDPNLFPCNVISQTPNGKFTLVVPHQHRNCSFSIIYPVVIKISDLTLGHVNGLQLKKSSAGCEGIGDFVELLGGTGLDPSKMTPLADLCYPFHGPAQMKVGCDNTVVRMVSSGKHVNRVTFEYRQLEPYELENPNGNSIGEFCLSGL

Trypsin = Trypsin (Sus scrofa, UniProt P00761); assay: porcine trypsin inhibitors, dose response, selectivity assay for Rce1 protease inhibitor project, biochemical, quenched peptide fluorescence, cherry-pick (AID 488789)
Sequence of Trypsin (P00761 whole entry): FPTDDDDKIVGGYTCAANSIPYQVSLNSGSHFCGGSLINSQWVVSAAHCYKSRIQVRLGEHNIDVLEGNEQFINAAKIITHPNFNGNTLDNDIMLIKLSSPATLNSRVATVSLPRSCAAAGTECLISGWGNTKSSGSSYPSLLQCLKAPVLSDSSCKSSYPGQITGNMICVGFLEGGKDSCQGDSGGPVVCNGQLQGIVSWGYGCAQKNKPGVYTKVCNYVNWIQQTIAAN

CAAX prenyl protease 2 [8] = target: T3, CAAX prenyl protease 2 (Saccharomyces cerevisiae S288c, UniProt Q03530); assay type: biochemical
T3 sequence (Q03530 whole entry): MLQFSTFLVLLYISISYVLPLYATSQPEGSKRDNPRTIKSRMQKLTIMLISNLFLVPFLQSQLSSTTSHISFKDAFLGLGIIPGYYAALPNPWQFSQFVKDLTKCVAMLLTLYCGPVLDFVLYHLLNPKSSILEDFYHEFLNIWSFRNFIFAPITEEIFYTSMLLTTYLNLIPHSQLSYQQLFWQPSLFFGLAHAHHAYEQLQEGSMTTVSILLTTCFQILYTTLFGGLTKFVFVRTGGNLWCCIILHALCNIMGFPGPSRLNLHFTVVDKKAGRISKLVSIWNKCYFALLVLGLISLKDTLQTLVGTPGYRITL

CAAX prenyl protease 2 [9] = target: T4, CAAX prenyl protease 2 (Homo sapiens, UniProt Q9Y256); assay: human Rce1 protease inhibitors, dose response, biochemical, yeast membranes, quenched-peptide fluorescence, cherry-pick (AID 588849)
T4 sequence (Q9Y256 whole entry): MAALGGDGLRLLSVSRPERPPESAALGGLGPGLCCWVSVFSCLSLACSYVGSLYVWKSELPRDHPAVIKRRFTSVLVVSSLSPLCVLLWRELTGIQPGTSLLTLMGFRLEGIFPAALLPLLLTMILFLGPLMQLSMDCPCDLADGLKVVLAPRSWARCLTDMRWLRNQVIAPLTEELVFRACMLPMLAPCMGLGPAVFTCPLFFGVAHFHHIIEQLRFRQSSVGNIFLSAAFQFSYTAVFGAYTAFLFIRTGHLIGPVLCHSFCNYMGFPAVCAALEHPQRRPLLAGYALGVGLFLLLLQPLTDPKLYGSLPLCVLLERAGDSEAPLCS

Sequence of 26S proteasome non-ATPase regulatory subunit 14 (O00487 whole entry): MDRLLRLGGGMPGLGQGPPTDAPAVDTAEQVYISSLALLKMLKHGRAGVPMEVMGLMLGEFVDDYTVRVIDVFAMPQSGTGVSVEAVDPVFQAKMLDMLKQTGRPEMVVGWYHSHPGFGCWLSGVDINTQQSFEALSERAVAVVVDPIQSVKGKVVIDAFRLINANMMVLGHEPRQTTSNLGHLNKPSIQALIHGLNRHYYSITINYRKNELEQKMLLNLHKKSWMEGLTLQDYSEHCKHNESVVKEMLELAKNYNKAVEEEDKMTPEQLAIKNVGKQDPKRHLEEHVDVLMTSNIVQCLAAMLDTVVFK

Compound: O=C(Nc1nc(-c2nc3ccccc3s2)cs1)c1ccco1
- IC50 [1]: 10.1 µM (active)
- IC50 [2]: 3.92 µM (active)
- IC50 (Prothrombin): 75.1 µM (active)
- IC50 [3]: > 100 µM (inactive)
- IC50 [4]: 2.44 µM (active)

Compound: CCC(=O)NC(c1cc(Cl)c2cccnc2c1O)C1CC1 (stereo not given)
- AC50 (HEK293): 10.1 µM (active)
- AC50 (INS1): 1.89 µM (active)

Compound: O=C(CCN1C(=O)/C(=C\c2cccs2)SC1=S)Nc1ccccn1
- IC50 [1]: 9.93 µM (active)
- IC50 (Prothrombin): 15.1 µM (active)
- IC50 [3]: > 100 µM (inactive)

Compound: Cn1c(=O)c2[nH]c(-c3ccccc3Cl)c(O)c2n(C)c1=O
- EC50 [5]: 55.6 µM (inactive)
- EC50 [6]: 16 µM (active)
- EC50 [7]: > 53 µM (inactive)

Compound: COc1ccc(C2=NN(C(=O)CCC(=O)O)C(c3cccs3)C2)cc1 (stereo not given)
- AC50 (Trypsin): 4.38 µM (active)
- AC50 (CAAX prenyl protease 2 [8]): 9.03 µM (active)
- AC50 (CAAX prenyl protease 2 [9]): 12.6 µM (active)

Compound: Cc1ccc2c(n1)sc1c(-c3ccccc3)c(C#N)c(N)nc12
- EC50 [5]: > 99 µM (inactive)
- EC50 [6]: > 99 µM (inactive)

Compound: Cc1nn(-c2ccccc2)c2nc(N)c(C(N)=O)cc12
- AC50 (Trypsin): 37.9 µM (active)
- AC50 (CAAX prenyl protease 2 [9]): 21.3 µM (active)

From ChEMBL document CHEMBL1201862, “PubChem BioAssay data set” (2004)
